Test results published in publication PMC7524946, “[^11C]mHED PET follows a two-tissue compartment model in mouse myocardium with norepinephrine transporter (NET)-dependent uptake, while [^18F]LMI1195 uptake is NET-independent” (EJNMMI Research, 2020).
“And” between values parts separate entries of the source, which are not always exact repeats. Identical values can stand only once. “Also recorded” adds a separate entry of the source. Like-named read-outs stand apart in the source and are kept apart here.

Assays:
myocardium = tested on: myocardium; design: method as in PMID 27230922; conditions: humans, recent PET study; cited from earlier work
[1] = biological target: T1, norepinephrine transporter (NET) (Mus musculus, UniProt O55192); test: PET/CT myocardial tracer uptake with desipramine blocking (specificity for NET); assay type: in vivo, FVB/N mice; conditions: 20 mg/kg desipramine HCl i.p. 10 min before tracer i.v.
T1 construct: from tissue; host or cells: myocardium (sympathetic nerve terminals) of living FVB/N mice, in vivo PET/CT
T1 sequence (O55192 whole entry): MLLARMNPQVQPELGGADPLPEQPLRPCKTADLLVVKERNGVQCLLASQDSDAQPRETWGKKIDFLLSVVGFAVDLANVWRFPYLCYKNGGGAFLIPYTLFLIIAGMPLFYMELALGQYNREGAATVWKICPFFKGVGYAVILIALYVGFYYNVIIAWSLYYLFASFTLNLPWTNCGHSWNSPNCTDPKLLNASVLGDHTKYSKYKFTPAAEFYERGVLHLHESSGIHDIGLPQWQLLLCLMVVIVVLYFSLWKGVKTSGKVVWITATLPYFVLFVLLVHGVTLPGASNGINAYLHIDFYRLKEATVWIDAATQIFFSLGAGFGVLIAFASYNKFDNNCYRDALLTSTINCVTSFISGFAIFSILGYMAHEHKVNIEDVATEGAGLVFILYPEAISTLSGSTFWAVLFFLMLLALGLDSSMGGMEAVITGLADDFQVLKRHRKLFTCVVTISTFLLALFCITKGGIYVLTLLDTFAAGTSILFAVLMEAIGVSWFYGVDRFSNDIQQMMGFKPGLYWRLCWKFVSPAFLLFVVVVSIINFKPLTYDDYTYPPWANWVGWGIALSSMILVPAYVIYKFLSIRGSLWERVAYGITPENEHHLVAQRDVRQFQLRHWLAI
Description: (§1) PET/computed tomography (CT) scans were performed with a calibrated SuperArgus PET/CT scanner (Sedecal, Madrid, Spain) with an axial field of view of 4.8 cm and a spatial resolution of 1.6–1.7 mm (full width at half maximum). Animals were under anaesthesia with ~ 2.5% isoflurane in oxygen/air (1:1) for tracer injection into the tail vein and during the scan. […] For scans without kinetic modelling, tracer was injected into mouse tail vein on scanner bed and the scan was started 1 min p.i. For kinetic modelling, [^11C]mHED was injected using the shunt system (see “Input function” section) on the scanner bed. Depth of anaesthesia was monitored by measuring the respiratory rate (SA Instruments, Inc., Stony Brook, USA). Body temperature was monitored by a rectal probe and kept at 37 °C by a heated air stream (37 °C). […] PET scans were followed by a CT for anatomical orientation.
Two [^11C]mHED scans (one baseline, one for kinetic modelling) were excluded from further analysis due to technical problems before or during the scan, respectively (not included in Table 1). […] Tissue radioactivity was either expressed as kBq/cm^3 or normalized to the injected dose per g body weight (kBq/g) and expressed as SUV, assuming a tissue density of 1 g/cm^3. […]

NET [2] = conditions: cited from earlier work; for D50: rat left ventricle wall
[3] = biological target: T1, norepinephrine transporter (NET); test: Dose dependency of myocardial [^11C]mHED uptake by PET/CT (NET saturation); assay type: in vivo, FVB/N mice; conditions: mouse myocardium
Description: as §1
For quantitative analyses, PET data in NIfTI file format were read with the R package oro.nifti version 0.9.1, and a cube of 36 × 30 × 30 voxels (8.7 × 7.3 × 7.3 mm^3) including the heart as judged from the PET and CT data was cropped. A liver mask was defined including all voxels with a slope ≥ − 0.012 SUV/min between 11 and 48 min p.i. (the slope limit was empirically defined by visual inspection of the results, Fig. 1). PET data corresponding to the liver mask were excluded. The myocardium mask was defined from the remaining data as the volume with highest SUV between 3 and 11 min p.i., corresponding to 0.5% of the individual body weight. Average SUV was calculated for the indicated time windows (stated as SUVstart time–end time). The SUV of the neck region was obtained from a spherical region of interest with 3 mm radius, placed over the shoulders, close to the spine.
The dose of combined administered [^11C]mHED and metaraminol (precursor for radiosynthesis) at half-maximal NET saturation in nmol/kg (D50) was calculated from the myocardial SUV1–31 min at various doses (D). […] Fit parameters were SUV1–31 min at indefinitely low dose (SUVmax), SUV1–31 min at full NET saturation, i.e. SUV1–31 min for nondisplaceable tracer (SUVmin) and D50, according to Eq. 3 which was fit to the data with the function nls of R.3 SUV1-31min=SUVmax-SUVmin×D50/D50+D+SUVmin

[4] = after [^11C]mHED i.v. injection
Description: Mice were injected awake with formulated [^11C]mHED (26–173 MBq) via the tail vein. Animals were anaesthetized with 5% isoflurane in oxygen/air (1:1) and euthanized by decapitation at the indicated time points to collect blood, urine, and heart tissue. Plasma was separated from blood by centrifugation (5000×g for 5 min at 4 °C). Plasma and urine were each mixed with equal volumes of ice-cold acetonitrile (MeCN) for protein precipitation. The dissected heart was homogenized in 2 ml PBS, and proteins were precipitated with 2 ml ice-cold MeCN. The samples were centrifuged (5000×g, 4 °C), and the supernatants were filtered and analysed by radio-UPLC (Waters Acquity UPLC HSS T3 1.8 µm) with the following separation conditions: 10 mM NH4HCO3 (solvent A), MeCN (solvent B); 0.0–1.0 min, 5–30% B; 1.0–1.7 min, 30% B; 1.7–1.8 min, 30–5% B and 1.8–3.0 min, 5% B at a flow rate of 0.5 ml/min (retention time: 1.75 min). The fraction of parent tracer radioactivity to total radioactivity in plasma (fparent) was calculated as the ratio of radioactivity in the [^11C]mHED peak and total detected radioactivity in the chromatogram.
In Eq. 1, q1 to q4 are the fit parameters (q3 was estimated and fixed) and t is the time. Equation 1 was empirically defined, taking into account the exponential functions of time under linear kinetics and a lag phase for metabolite formation.

[5] = Description: For determining activity concentration ratios of plasma to whole blood in mice, 11–90 MBq [^11C]mHED were injected intravenously (i.v.) via the tail vein in awake mice. After anaesthesia, animals were euthanized at the indicated time points and blood was collected. An aliquot was centrifuged as described above to separate plasma from blood cells. Plasma and whole blood activity concentrations (Bq/ml) were determined by a gamma counter (Wizard 1480; Perkin Elmer) to calculate the plasma/whole blood activity concentration ratio (ρplasma/blood). Bi-exponential function (Eq. 2) was fit to ρplasma/blood over time using the nls function of R.2 ρplasma/blood=r1×exp-r3×t-r2×exp-r4×t+r2
In Eq. 2, r1 to r4 are the fit parameters and t is the time.

NET [6] = tested on: NET; design: method as in PMID 20679472, PMID 9290077; conditions: mouse myocardium; cited from earlier work
mouse myocardium = test: [^11C]mHED PET kinetic (compartment) modelling with arteriovenous shunt input function; assay type: in vivo, FVB/N mice; conditions: mean of 3 scans (SD)
Description: as §1
For kinetic modelling, an arteriovenous shunt system was applied to record the coincidences of arterial blood (Twilite, Swisstrace, Zurich, Switzerland) simultaneously with the PET data acquisition (Additional file 1). The resulting blood coincidences were transformed to Bq/ml with a calibration factor determined from simultaneous measurements of an [^11C]mHED solution in the PET scanner and the blood counter. Next, the blood Bq/ml was multiplied with fitted Eq. 2 to calculate the plasma activity concentration. Finally, the plasma Bq/ml was multiplied with fitted Eq. 1 to receive the parent tracer Bq/ml in plasma, which is the input function.
PET kinetic modelling with R was performed with a one- and three two-tissue compartment models according to Eq. 4,4 CPET=1-vb×Wmodel⊗Ca+vb×Cb where CPET is the activity concentration in the PET image, either as kBq/cm^3 or normalised as SUV, vb is the partial volume of blood in the region-of-interest (potentially including interstitial space), Wmodel is the model-dependent weighting function. Ca is the parent tracer activity concentration in the arterial plasma (input function, kBq/ml, or SUV), and Cb is the whole blood activity concentration as calculated from the blood coincidences, in kBq/cm^3 or as SUV.
WTCM1 for the one-tissue compartment model (TCM1, Fig. 2a) corresponds to K1 × exp(− k2 × t), with t as time, K1 and k2 the clearance term from plasma to tissue and rate constant back, respectively. WTCM2p and WTCM2s for the two-tissue compartment models with parallel (TCM2p, Fig. 2b) and serial (TCM2s, Fig. 2c) tissue compartments, respectively, were according to Eqs. 5–10 [16]. In the case of the TCM2p, K1, k2, K3, and k4 correspond to φ1, θ1, φ2, and θ2, respectively, of Eq. 5. WTCM2v for the two-tissue compartment model in Fig. 2d (TCM2v) was numerically solved from the differential equation system in Eqs. 11 and 12 with the R package deSolve and the ode function, with 1-s time intervals.
Besides the transfer clearance or rate constants K1, k2, k3 (or K3 for TCM2p), and k4, vb was included as a parameter to fit. Equation 3 was fit to the experimental TACs applying the optim minimization function of R.
Fits were run with multiple starts with a matrix of 101 sets of random start parameters between lower and upper limits for K1, k2, k3 (or K3), k4, and vb (Additional file 1: Table S1). The activity concentrations in the individual tissue compartments were simulated by numerically solving the respective differential equation systems for TCM2s and TCM2v and from the analytical solutions for TCM2p (the two exponential terms of Eq. 5). Calculations were performed in parallel on a 32 core workstation. Best fits were chosen based on the sum of squared residues (SSR) between predicted and experimental TACs. […] Correlations between parameters were calculated with the lm, cor, and cor.test functions of R and were considered significant at p < 0.05.

NET [7] = tested on: NET; design: method as in PMID 21555377, PMID 23601914; conditions: rabbits; cited from earlier work
NET [8] = tested on: NET; design: method as in PMID 21555377, PMID 23601914; conditions: rats; cited from earlier work
NET [9] = tested on: NET; design: method as in PMID 21555377, PMID 23601914; conditions: human subjects; cited from earlier work
NET [10] = tested on: NET; design: method as in PMID 21555377, PMID 23601914; conditions: nonhuman primates; cited from earlier work
[11] = volume-of-interest 0.5% body volume

Which results are given for `C[C@H](N[11CH3])[C@H](O)c1cccc(O)c1` [[^11C]mHED, [^11C]meta-hydroxyephedrine]?
K1 of [^11C]mHED uptake (myocardium): up to 0.6 ml/min/g; Blocking of myocardial tracer uptake by desipramine [1]: significantly reduced; also recorded: blocking effect was observed; Reported D50 (NET [2]; rat myocardium): 91 nmol/kg; D50 (dose of combined [^11C]mHED and metaraminol at half-maximal NET saturation) ([3]; from SUV1–31 min, fit Eq. 3, n = 14 scans): 88.3 nmol/kg; D50 (dose at half-maximal NET saturation) ([3]; from SUV1–61 min (complete scan duration)): 89.1 nmol/kg; Fit SUVmax (SUV1–31 min at indefinitely low dose) [3, 11]: 4.4; Fit SUVmin (SUV1–31 min at full NET saturation, nondisplaceable tracer) [3, 11]: 1.0; Radiometabolite in plasma and urine ([4]; mouse): detected a radiometabolite in plasma and urine; Radiometabolite in myocardium ([4]; mouse heart extract): no radiometabolite were detected; ρplasma/blood (plasma/whole blood activity concentration ratio) ([5]; at 3 min): ~ 0.6; ρplasma/blood (plasma/whole blood activity concentration ratio) ([5]; constant value from ~ 20 min onwards): ~ 1; ρplasma/blood (plasma/whole blood activity concentration ratio) ([5]; time t = 0, assumed 1/(1-Hkt), hematocrit 0.458): 1.85; Reported D50 (NET [6]): 132 nmol/kg; K1 (mouse myocardium; TCM1): 0.87 ± 0.11 ml/min/cm^3 and 0.868 (0.113) ml/min/cm^3; k2 (mouse myocardium; TCM1): 0.029 (0.01) 1/min; K1 (mouse myocardium; TCM2p): 0.499 (0.153) ml/min/cm^3; K3 (mouse myocardium; TCM2p): 0.448 (0.114) ml/min/cm^3; k2 (mouse myocardium; TCM2p): 0.0125 (0.0034) 1/min; k4 (mouse myocardium; TCM2p): 0.134 (0.040) 1/min; K1 (mouse myocardium; TCM2s): 0.947 ± 0.146 ml/min/cm^3 and 0.947 (0.146) ml/min/cm^3; k2 (mouse myocardium; TCM2s): 0.0672 (0.0062) 1/min; k3 (mouse myocardium; TCM2s): 0.0541 (0.0263) 1/min; k4 (mouse myocardium; TCM2s): 0.0254 (0.0117) 1/min; K1 (mouse myocardium; TCM2v): 0.947 ± 0.146 ml/min/cm^3 and 0.947 (0.146) ml/min/cm^3; k2 (mouse myocardium; TCM2v): 0.0672 (0.0062) 1/min; k3 (mouse myocardium; TCM2v): 0.0669 (0.0344) 1/min; k4 (mouse myocardium; TCM2v): 0.0125 (0.0034) 1/min

Which results are given for `N=C(N)NCc1ccc(OCCC[18F])c(Br)c1` [[^18F]LMI1195, [^18F]flubrobenguane]?
Desipramine sensitivity of cardiac uptake (NET [7]): desipramine-sensitive; Desipramine sensitivity of cardiac uptake (NET [8]): not in rats; Blocking of myocardial tracer uptake by desipramine [1]: not; Desipramine sensitivity of cardiac uptake (NET [9]): desipramine-sensitive; Desipramine sensitivity of cardiac uptake (NET [10]): desipramine-sensitive

Which D50 (NET [2]) does the source give for `C[C@H](N)[C@H](O)c1cccc(O)c1` [metaraminol] here?
The D50 was 90 to 100 nmol/kg.

Which D50 (NET [2]) does the source give for `CNC(C)C(O)c1cccc(O)c1` (stereo not shown) [mHED, meta-hydroxyephedrine] here?
The D50 was 90 to 100 nmol/kg.
